Assay results reported in patent EP4570245A1, “COMBINED AGENTS WITH SYNERGISTIC EFFECT AGAINST GLIOMAS” (Eberhard Karls Universität Tübingen Medizinische Fakultät, priority 2023, dated 2025).

Assays:
[1] = test system: LN18 and T98G glioma cell lines; experiment: Clonogenic survival assay of shRNA knockdown cells under CCNU treatment; type: cell-based
Method: The inventors seeded the cells one day prior to treatment. The inventors then treated the cells with the specified concentrations in serum-free medium for 24 hours. Afterward, they changed the medium back to one containing FCS and incubated the cells for a period ranging from 14 to 21 days. The inventors stained the colonies using 0.5% w/v crystal violet and counted them. Measurements were normalized to the respective vehicle control wells.
Based on the CRISPR/Cas9 screen result a loss of the Fanconi anemia DNA repair pathway should increase the effect of CCNU treatment. Therefore, the inventors induced an shRNA knockdown in LN18 and T98G glioma cell lines for FANCA or FANCD2. These knockdown cell lines were treated in clonogenic survival assays with CCNU in comparison to a control cell line transduced with a vector coding for an shRNA against Luciferase (Figure 2).

[2] = target: T1, RMI (RecQ-mediated genome instability protein) core complex/MM2 interaction (Homo sapiens, UniProt Q96E14+Q9H9A7); settings: inhibitor of RMI core complex/MM2 interaction; MM2 is the binding site of RMI complex on FANCM; cited from earlier work
T1 sequence (Q9H9A7 473-625 limits assumed): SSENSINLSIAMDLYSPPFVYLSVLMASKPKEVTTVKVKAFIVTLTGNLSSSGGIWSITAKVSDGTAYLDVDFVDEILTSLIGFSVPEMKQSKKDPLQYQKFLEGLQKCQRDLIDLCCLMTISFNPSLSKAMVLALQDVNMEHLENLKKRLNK
T1 sequence (Q96E14 1-147): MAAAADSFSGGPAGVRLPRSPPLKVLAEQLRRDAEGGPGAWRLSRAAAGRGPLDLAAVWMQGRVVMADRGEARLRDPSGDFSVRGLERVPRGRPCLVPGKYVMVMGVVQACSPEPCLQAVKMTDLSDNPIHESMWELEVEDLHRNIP

Row | Structure (SMILES) | sensitivity to CCNU treatment ([1]; FANCA shRNA knockdown cell lines compared to the luciferase shRNA control) | sensitivity to CCNU treatment ([1]; FANCD2 shRNA knockdown cell lines compared to the luciferase shRNA control) | IC50 [2]
1 | O=NN(CCCl)C(=O)NC1CCCCC1 [CCNU, lomustine] | more sensitive | more sensitive | 
2 | CCOC(=O)N1CCN(C(c2ccccn2)c2c(-c3ccccc3)n(O)c3ccccc23)CC1 (stereo not drawn) [PIP-199] |  |  | 36 µM
